We go through 15 molecules from patent publication US11479539B2, “Small molecule modulators of the BTB domain of Keap1” (MedImmune Limited, priority 2017, dated 2022).

Each structure is given as a SMILES string.

Keap1, sequence (Q14145 whole entry): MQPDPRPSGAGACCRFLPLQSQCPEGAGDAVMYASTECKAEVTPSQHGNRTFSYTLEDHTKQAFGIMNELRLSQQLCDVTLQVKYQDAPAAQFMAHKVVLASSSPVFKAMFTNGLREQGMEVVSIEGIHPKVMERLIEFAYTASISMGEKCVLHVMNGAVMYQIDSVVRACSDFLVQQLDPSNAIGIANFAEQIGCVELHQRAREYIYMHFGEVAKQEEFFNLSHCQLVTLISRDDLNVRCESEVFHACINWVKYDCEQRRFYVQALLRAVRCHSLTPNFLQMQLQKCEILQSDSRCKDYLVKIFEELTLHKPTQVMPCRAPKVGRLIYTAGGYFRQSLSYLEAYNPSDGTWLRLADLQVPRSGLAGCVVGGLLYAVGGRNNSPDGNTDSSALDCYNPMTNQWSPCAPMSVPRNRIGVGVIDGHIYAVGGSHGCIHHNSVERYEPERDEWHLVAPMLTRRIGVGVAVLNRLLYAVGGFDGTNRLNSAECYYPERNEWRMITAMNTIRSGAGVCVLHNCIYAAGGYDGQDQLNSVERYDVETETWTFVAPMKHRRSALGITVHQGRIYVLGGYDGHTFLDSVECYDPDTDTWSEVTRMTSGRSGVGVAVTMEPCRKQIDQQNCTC

This experiment addresses Keap1 (Homo sapiens (Human), UniProt Q14145). Description: HEK293 ARE luciferase assay. In kind it is cell-based. Particulars: HEK-293 ARE firefly luciferase transiently transfected cells; 18 h incubation; mean of 1 to 20 individual measurements. The essentials:
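Keap1 inhibition read as Nrf2-driven luciferase rise: compounds dosed in 10 points up to 100 μM (0.3% DMSO) on HEK-293 ARE luciferase cells, 10,000/well, 18 h at 37 °C, then SteadyGlo luminescence. Scaled between DMSO vehicle and 30 μM tBHQ; values average 1-20 runs.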
As to `COC1(c2ncc(F)cc2-c2cncc(Cl)c2)C=C(C#N)C(=O)C(C)(C)C1` (stereo not drawn) [Compound 185, 3-(5′-chloro-5-fluoro[3,3′-bypyridin]-2-yl)-3-methoxy-5,5-dimethyl-6-oxocyclohex-1-ene-1-carbonitrile], a half-maximal effect (EC50) was put at 8 nM. This lies in the single-digit nanomolar range.

With `COC1(c2ncc(F)cc2-c2cncc(C(F)(F)F)c2)C=C(C#N)C(=O)C(C)(C)C1` (stereo not drawn) [Compound 186, 3-[5-fluoro-5′-(trifluoromethyl)[3,3′-bypyridin]-2-yl]-3-methoxy-5,5-dimethyl-6-oxocyclohex-1-ene-1-carbonitrile], the EC50 came to 75 nM.

Molecule `COC1(c2ncc(F)cc2-c2c(C)nn(C)c2C)C=C(C#N)C(=O)C(C)(C)C1` (stereo not drawn) [Compound 187, 3-[5-fluoro-3-(1,3,5-trimethyl-1H-pyrazol-4-yl)pyridin-2-yl]-3-methoxy-5,5-dimethyl-6-oxocyclohex-1-ene-1-carbonitrile] yielded a 50% effective concentration (EC50) of 77 nM.

The molecule `COC1(c2ncc(F)cc2-c2ccn3ncnc3c2)C=C(C#N)C(=O)C(C)(C)C1` (stereo not drawn) [Compound 188, 3-[5-fluoro-3-([1,2,4]triazolo[1,5-a]pyridin-7-yl)pyridin-2-yl]-3-methoxy-5,5-dimethyl-6-oxocyclohex-1-ene-1-carbonitrile] came in with an EC50 of 23 nM. Against the preceding molecule, the EC50 is about 3.3-fold lower.

In turn, `COC1(c2ncc(F)cc2-c2c(C)nn(C)c2C)C=C(C#N)C(=O)C(C)(C)C1` (stereo not drawn) [Compound 189, 3-[5-fluoro-3-(1,3,5-trimethyl-1H-pyrazol-4-yl)pyridin-2-yl]-3-methoxy-5,5-dimethyl-6-oxocyclohex-1-ene-1-carbonitrile] showed an EC50 of 1530 nM.

In turn, `COC1(c2ncc(F)cc2-c2ccn3ncnc3c2)C=C(C#N)C(=O)C(C)(C)C1` (stereo not drawn) [Compound 190, 3-[5-fluoro-3-([1,2,4]triazolo[1,5-a]pyridin-7-yl)pyridin-2-yl]-3-methoxy-5,5-dimethyl-6-oxocyclohex-1-ene-1-carbonitrile] displayed an EC50 of 1680 nM.

`COC1(c2ncc(F)cc2-c2sc(C)nc2C)C=C(C#N)C(=O)C(C)(C)C1` (stereo not drawn) [Compound 191, 3-[3-(2,4-dimethyl-1,3-thiazol-5-yl)-5-fluoropyridin-2-yl]-3-methoxy-5,5-dimethyl-6-oxocyclohex-1-ene-1-carbonitrile] returned an EC50 of 12 nM.

For `COC1(c2ncc(F)cc2-c2cc[nH]c(=O)c2)C=C(C#N)C(=O)C(C)(C)C1` (stereo not drawn) [Compound 192, 3-(5-fluoro-2′-oxo[1′,2′-dihydro[3,4′-bipyridine]]-2-yl)-3-methoxy-5,5-dimethyl-6-oxocyclohex-1-ene-1-carbonitrile], the EC50 was greater than 10000 nM.

In turn, `COC1(c2ncc(F)cc2-c2cccc(=O)[nH]2)C=C(C#N)C(=O)C(C)(C)C1` (stereo not drawn) [Compound 193, 3-(5′-fluoro-6-oxo[1,6-dihydro[2,3′-bipyridine]]-2′-yl)-3-methoxy-5,5-dimethyl-6-oxocyclohex-1-ene-1-carbonitrile] returned an EC50 greater than 10000 nM.

`COC1(c2nc(C)c(-c3ccccn3)s2)C=C(C#N)C(=O)C2(CC2)C1` (stereo not drawn) [Compound 194, 7-methoxy-7-[4-methyl-5-(pyridin-2-yl)-1,3-thiazol-2-yl]-4-oxospiro[2.5]oct-5-ene-5-carbonitrile] returned an EC50 of 203 nM.

`COC1(c2ncc(F)cc2-c2sc(C)nc2C)C=C(C#N)C(=O)C(C)(C)C1` (stereo not drawn) [Compound 195, 3-[3-(2,4-dimethyl-1,3-thiazol-5-yl)-5-fluoropyridin-2-yl]-3-methoxy-5,5-dimethyl-6-oxocyclohex-1-ene-1-carbonitrile] showed an EC50 of 1300 nM. Against the preceding molecule, the EC50 is about 6.4-fold higher.

`COC1(c2ncc(F)cc2C(F)F)C=C(C#N)C(=O)C2(CC2)C1` (stereo not drawn) [Compound 196, 7-[3-(difluoromethyl)-5-fluoropyridin-2-yl]-7-methoxy-4-oxospiro[2.5]oct-5-ene-5-carbonitrile] showed an EC50 of 46 nM.

`CO[C@]1(c2ncc(Cl)cn2)C=C(C#N)C(=O)C(C)(C)C1` [Compound 214, (3S)-3-(5-chloropyrimidin-2-yl)-3-methoxy-5,5-dimethyl-6-oxocyclohex-1-ene-1-carbonitrile]: a half-maximal effect (EC50) was put at 20 nM.

Consider `COC1(c2ccc(C)cn2)C=C(C#N)C(=O)C(C)(C)C1` (stereo not drawn) [Compound 239, 3-methoxy-5,5-dimethyl-3-(5-methylpyridin-2-yl)-6-oxocyclohex-1-ene-1-carbonitrile], for which the EC50 turned out to be 50 nM.

As to `COC1(c2ccc(F)cn2)C=C(C#N)C(=O)C2(CCCC2)C1` (stereo not drawn) [Compound 240, 9-(5-fluropyridin-2-yl)-9-methoxy-6-oxospiro[4.5]dec-7-ene-7-carbonitrile], the EC50 is 838 nM.

Usually EC50 stands for the concentration that produces a half-maximal response. Read a low EC50 as higher potency in that assay.
